PMC5881522, “Molecular Defects in Cardiac Myofilament Ca^2+-Regulation Due to Cardiomyopathy-Linked Mutations Can Be Reversed by Small Molecules Binding to Troponin” (Frontiers in Physiology, 2018)
“Also recorded” adds a separate entry of the source.

How the values were obtained:
[1] = system: transgenic HCM mouse model; parameters: method as in Tadano et al., 2010; conditions: ref Tadano et al., 2010; cited from earlier work
[2] = target: T1, tropomyosin E180G mutant-containing thin filaments (Homo sapiens, UniProt P19429+P45379+P63316); test: Single [Ca2+] in vitro motility assay screen for re-coupling; assay type: biochemical; conditions: for Coupling Difference (Initial Screen E180G): 100 μM compound, 0.037 μM Ca2+, difference between motility (%) in phosphorylated and unphosphorylated thin filaments, TPM1 E180G, >10% = re-coupling; for EC50: dose-response of % motility difference at 0.037 μM Ca2+, Hill fit
T1 construct: isolate troponin from 100 mg of donor heart tissue; from tissue; host or cells: troponin: human donor heart; tropomyosin: baculovirus/Sf9 (gift); actin: rabbit fast-twitch skeletal muscle
Experimental: (§1) Thin filaments were reconstituted with 10 nM rabbit skeletal or mouse cardiac muscle α-actin (labeled with TRITC phalloidin), tropomyosin (40–60 nM), and troponin (60 nM) to study Ca^2+-regulation of filament motility by the quantitative in vitro motility assay (IVMA) (Fraser and Marston, [1995]; Messer et al., [2007]). Thin filament movement over a bed of immobilized rabbit fast skeletal muscle heavy meromyosin (100 μg/ml) was compared in paired motility cells, in which troponin varied by a single factor (mutation, phosphorylation state, or treatment with drug). The temperature was set to 29°C. Filament movement was recorded and analyzed as previously described (Marston et al., [1996]), yielding two parameters, the fraction of filaments moving and the speed of moving filaments. Only the fraction of filaments motile is used in this study.
For drug screening, motility was measured with paired phosphorylated and unphosphorylated tropomyosin E180G mutant-containing thin filaments at a fixed 0.037 μM Ca^2+. Most assays were single measurements.
For the rapid screening of compounds, we devised a single Ca^2+ concentration assay. This is illustrated in Figures 2A,B for quercetin. The test system contains skeletal muscle actin, human sequence recombinant tropomyosin 1.1 containing the E180G HCM-associated mutation and human cardiac troponin from donor hearts in the phosphorylated and unphosphorylated form. At 0.037 μM Ca^2+ the filaments are about 40% motile irrespective of phosphorylation level whilst when quercetin is added the phosphorylated Ca^2+ activity curve shifts to the right and % motility at 0.037 μM Ca^2+ drops, whilst the unphosphorylated level is unchanged. We have set a difference between phosphorylated and unphosphorylated >10% as indicating re-coupling activity. This assay method can also be used to construct a dose-response curve as shown. We investigated compounds in 4 categories.
Figure 2 Single [Ca^2+] screen for re-coupling compounds. […] Solid lines, phosphorylated state; dotted lines, unphosphorylated state. Purple lines and points, E180G thin filaments; green lines and points, E180G thin filaments + Quercetin (B) Dose -response curve for quercetin recoupling activity measured at a constant concentration of 0.037 μM Ca^2+. INSET, kinetic analysis of dose response curve; difference between phosphorylated and unphosphorylated states is plotted against quercetin concentration. The Hill equation is fitted to the data, EC50 = 8 μM. (C,D) The effect of 100 μM drug treatment on the difference between % of motility of phosphorylated and unphosphorylated tropomyosin E180G mutant-containing thin filaments at 0.037 μM Ca^2+. (C) EGCG-related molecules (for structures 1–28 see Figure S1 and Table 1). (D) Silybin, related compounds and other HsP90 inhibitors and Ca^2+ desensitizers. The threshold for positive re-coupling was set at a 10% difference (dotted line).

wild-type thin filaments = target: T2, wild-type thin filaments (Homo sapiens, UniProt P19429+P45379+P63316); test: IVMA Ca2+-activation curves, wild-type thin filaments; assay type: biochemical; conditions: ratio of EC50 in presence and absence of compound, phosphorylated and unphosphorylated states
T2 construct: isolate troponin from 100 mg of donor heart tissue; from tissue; host or cells: troponin: human donor heart; actin: rabbit skeletal muscle
Experimental: as §1
The fraction motile was measured over a range of Ca^2+ concentrations to generate Ca^2+-activation curves. The data were fitted to the 4-variable Hill equation to yield a value for EC50 and nH. Most assays of the effect of compounds are single measurements.
EC50 for Ca2+ activation of phosphorylated and unphosphorylated thin filaments incorporating troponin from HCM and DCM tissue samples that are uncoupled was measured by in vitro motility assay in the presence and absence of 100 µM EGCG. […]

[3] = system: isolated cardiomyocytes from ACTC E99K HCM transgenic mice; test: Lusitropic effect of dobutamine in isolated cardiomyocytes; assay type: cell-based; conditions: blunted in ACTC E99K mouse cardiomyocytes; preliminary experiments
Excerpt: The main effect of uncoupling of the modulation of Ca^2+ sensitivity by TnI phosphorylation is the loss of the lusitropic response to beta adrenergic stimulation, which is usually accompanied by blunting of the whole physiological adrenergic response.

[4] = system: mutant-containing thin filaments; test: IVMA Ca2+-activation curves, collected uncoupled mutant thin filaments; assay type: biochemical; conditions: every uncoupling mutation tested; 100 μM EGCG
Experimental: as §1, with “Only the fraction of filaments motile is used in this study.” left out
(§2) The fraction motile was measured over a range of Ca^2+ concentrations to generate Ca^2+-activation curves. […]
We measured the Ca^2+ activation of contractility using an in vitro motility assay that measures the movement of reconstituted thin filaments over a bed of immobilized myosin heads. […] Thus, the effect of EGCG is independent of the mutation that induced uncoupling; in addition, both in man and cat, HCM cases were found where no mutation in sarcomeric genes was detected yet the thin filaments were uncoupled and they could also be re-coupled by EGCG (Bayliss et al., [2012]; Messer et al., [2016]). […]

[5] = target: T3, thin filaments containing TnC G159D (TNNC1 G159D, DCM) (Homo sapiens, UniProt P19429+P45379+P63316, G159D); test: IVMA Ca2+-activation curves, TNNC1 G159D; assay type: biochemical; conditions: phosphorylated and unphosphorylated TnC G159D thin filaments
T3 construct: TnC G159D mutant troponin was extracted from a mutant human heart sample; from tissue; host or cells: mutant human heart sample (troponin); rabbit skeletal muscle (actin)
Excerpt: Recombinant human sequence tropomyosin was a gift from Kristen Nowak and Elyshia MacNamara, University, Western Australia. Wild-type α-tropomyosin (Tpm1.1) and mutant E180G tropomyosin were expressed in a baculovirus/Sf9 system (Akkari et al., [2002]; Marston et al., [2013]). Skeletal muscle F-actin and myosin were isolated from rabbit fast-twitch skeletal muscle as previously described (Messer et al., [2007]). TnC G159D mutant troponin was extracted from a mutant human heart sample (Dyer et al., [2009]), E99K mutant cardiac actin was extracted from the E99K transgenic mouse heart (Song et al., [2013]).
Thin filaments were reconstituted with 10 nM rabbit skeletal or mouse cardiac muscle α-actin (labeled with TRITC phalloidin), tropomyosin (40–60 nM), and troponin (60 nM) to study Ca^2+-regulation of filament motility by the quantitative in vitro motility assay (IVMA) (Fraser and Marston, [1995]; Messer et al., [2007]). […] Filament movement was recorded and analyzed as previously described (Marston et al., [1996]), yielding two parameters, the fraction of filaments moving and the speed of moving filaments. […]
as §2

[6] = dose response of motile percentage, Figure S2B

| Structure (SMILES) | impaired pump function due to diastolic dysfunction, in words [1] | Coupling Difference (Initial Screen E180G) [2] [%] | EC50 [2] [µM] | effect on Ca2+-sensitivity of wild-type thin filaments, in words (wild-type thin filaments) | lusitropic effect of dobutamine, in words [3] | restoration of coupling in uncoupled thin filaments, in words [4] | dose at which recoupling begins [2, 6] [µM] | dose of peak recoupling [2, 6] [µM] | effect on Ca2+-activation curves (desensitizer / re-coupler), in words [5] |
| --- | --- | --- | --- | --- | --- | --- | --- | --- | --- |
| O=C(O[C@@H]1Cc2c(O)cc(O)cc2O[C@@H]1c1cc(O)c(O)c(O)c1)c1cc(O)c(O)c(O)c1 [EGCG, epigallocatechin-3 gallate] | restored the impaired pump function | 23.0 | 59 | significant desensitizer | anomalous | restore the coupling |  |  |  |
| COc1cc([C@@H]2Oc3cc([C@H]4Oc5cc(O)cc(O)c5C(=O)[C@@H]4O)ccc3O[C@H]2CO)ccc1O [Silybin B] |  | 55 | 39 |  | restored |  | 50 | 100 | pure recoupler; also recorded: pure recoupling |
